Values belong to the compound of their own block, whether it stands above or below them.
Columns and labels:
[1] = Release of dye from sol-gel silica gels/microspheres into demineralised water, UV-visible absorbance; type: physicochemical
Procedure: The release of the dye molecule from the gels was performed in 3 ml of demineralised water and the evolution of the absorbance with time was monitored at a fixed wavelength λmax=485 nm using a UV-visible spectrophotometer (Lambda 40, Perkin Elmer, USA). The wavelength of 485 nm corresponds to the absorbance maximum of Orange II in the visible spectrum.
The plots of fraction of dye released versus time (FIG. 1) were obtained by dividing the actual quantity of dye released by the total mass of dye encapsulated in the gel. For the dry gel, this quantity is calculated by dividing the total quantity of dye in the gel rod by the mass of the gel and multiplying it by the mass of the gel sample used in the release experiments. For the wet gel, the fraction released was obtained experimentally from the final absorbance.
To study the influence of the temperature on the release rate, a known quantity of gel was immersed in 3 ml of demineralised water and the absorbance was monitored at a fixed wavelength of 485 nm. One sample was kept at ambient temperature (i.e. 22° C.) and two others were maintained at 37° C. and 60° C. in thermostated water baths.
The release rates of the Orange II samples were monitored at a fixed wavelength of 485 nm while the release rates of the methyl-violet samples were monitored at 584 nm (corresponding to the absorption peak of methyl-violet in the visible spectrum).

[2] = spray-dried particles produced from bohemite sols; cited from earlier work
[3] = Release of cycloheximide and cis-platin from gels, UV absorbance; type: physicochemical; settings: release from gels in 3 ml of 0.9% NaCl, 300 nm
Procedure: The first series of samples was prepared by mixing 5.51 ml of TMOS (37 mmol), 2.67 ml of either drug solutions (148 mmol of H2O) and 6 ml of methanol (148 mmol). 4 ml aliquots of the solutions were transferred to 5 ml screw capped poly-propylene vials and placed in an oven at 60° C. to gel. Once gelation occurred the samples were aged at 60° C. for 7 days. The cap was then removed and the samples were allowed to dry for 3 days at 60° C.
A second series of samples was prepared by combining 3 ml of TMOS (20 mmol), 2.88 ml of MTMS (20 mmol) and 2.91 ml of the respective drug solution (161 mmol of H2O). These samples were processed as described above.
The release of cycloheximide from a known quantity of gel was investigated in 3 ml of demineralised water and the absorbance was monitored at a fixed wavelength, .λmax=201 nm. The release of cis-platin from a known quantity of gel was investigated in 3 ml of 0.9% NaCl and the absorbance was monitored at a fixed wavelength, λmax=300 nm.

[4] = Degradation of cis-platin in silica gels on aging at 60° C., examined by transmission electron microscopy; type: physicochemical
Procedure: The substitution of metal alkoxides by organically modified silicon alkoxides leads to the replacement of the hydroxyl groups at the surface of the pores by organic moieties (e.g. methyl vinyl, glycidyloxypropyl groups). This prevents interaction between the entrapped bio-molecules and the surface, and potential degradation of the active ingredient. This is illustrated by the encapsulation of cis-platin in silica gels.
A solution containing 20 ml of TMOS (134 mmol), 9.69 ml of cis-platin solution (538 mmol of water) and 21.8 ml of methanol (538 mmol) was stirred for 30 minutes. 4 ml aliquots of the solution were transferred to 5 ml screw capped poly-propylene vials and placed in an oven at 60° C. to gel. Once gelation occurred the samples were aged at 60° C. for 15 days. The cap was then removed and the samples were allowed to dry for 3 days at 60° C.
An identical procedure was used to prepare gels from a solution containing 3 ml of TMOS, 2.88 ml of MTMS and 2.91 ml of cis-platin solution.
After 3 days of aging at 60° C. the gels prepared from TMOS started to darken, ultimately yielding a black gel after 15 days aging. […] The two dry gels were subsequently examined by transmission electron microscopy using a JEOL 201 OF field emission gun microscope.

Compound: O=S(=O)([O-])c1ccc(N=Nc2c(O)ccc3ccccc23)cc1.[Na+] [Orange II, 4-(2-hydroxy-1-napthylazo) benzene sulfonic acid, sodium salt]
release rate versus MTMS content ([1]; 0-50% of TMOS substituted with MTMS, W=4, D=4): decrease with increasing MTMS content
release rate versus drying time and temperature ([1]; gels W=4, D=0, dried 1, 3 or 7 days at ambient, 60° or 104° C.): decrease with increasing time and temperature
pH of maximum release rate ([1]; gels W=4, D=4, dye solution pH 1-11): 7
release rate versus pH, acid catalyst ([1]; gels W=4, D=4, synthesised using acid as a catalyst): increase with increasing pH
release rate versus pH, base catalyst ([1]; gels W=4, D=4, synthesised using base as a catalyst): decrease with increasing pH
release rate versus syneresis time ([1]; gels aged at 60° C. for 0-30 days): increase with syneresis time
release rate of the dye versus W and D ([1]; gels with W = 2-8, D = 0-8, release in demineralised water, 485 nm): increase with increasing W and decreasing D
release rate of microspheres versus drying temperature ([1]; microspheres dried from ambient to 100° C. for 2 days): decreases with increasing drying temperature
release rate versus temperature of the release media ([1]; release at 22° C., 37° C. and 60° C. in demineralised water): increase with increasing temperature

Compound: CN(C)CCCN1c2ccccc2CCc2ccccc21 [imipramine]
release of encapsulated imipramine [2]: released within five minutes

release rate compared with cycloheximide [3]: greater
reaction of cis-platin with the matrix, MTMS substituted gels ([4]; 50% of TMOS substituted by MTMS): prevents any such precipitation
Compound: Cis Pt(NH3)2Cl2 [cis-platin]
reaction of cis-platin with the matrix, silica gels ([4]; encapsulated in silica gels (TMOS)): precipitation of metallic platinum nanoparticles

release rate compared with Orange II ([1]; gels W=4, D=4, aged 15 or 30 days at 60° C., monitored at 584 nm): significantly smaller
Compound: methyl violet

— patent publication US7585521B2, “Controlled release ceramic particles, compositions thereof, processes of preparation and methods of use” (Australian Nuclear Science & Technology Organisation, priority 2000, dated 2009)
